The record followed here is patent US10421718B2, “EBNA1 inhibitors and their method of use” (priority 2013, dated 2019).

What is called IC50 is the concentration that inhibits the measured activity by half.

For this test, the target named is T1, His-EBNA1 (DNA binding domain of EBNA1, amino acids 459-607) (Epstein-Barr virus, UniProt P03211).
T1 construct: made in house; host or cells: E. coli
Description: Inhibition of 5′-biotin-oPL4624 binding to His-EBNA1 using Alpha Screen technology. Particulars: Alpha Screen Activity (IC50, inhibition of 5′-biotin-oPL4624 binding to His-EBNA1), 15 nM His-EBNA1, 0.2 nM bt-oPL4624, 2 hr room temperature. The essentials:
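AlphaScreen signal (680 nm ex, 570 nm em) after a 2-h room-temperature incubation, normalized to no-EBNA1 (100% inhibition) and EBNA1 (0%) values and fit to a one-site curve. Final conditions: 15 nM His-EBNA1 (aa 459-607), 0.2 nM bt-oPL4624, Tris pH 7.2 buffer with 160 mM NaCl, compound 3.2 nM to 100 μM.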
(Alpha assays give light when donor and acceptor beads are brought close together.)

T1 sequence (P03211 459-607): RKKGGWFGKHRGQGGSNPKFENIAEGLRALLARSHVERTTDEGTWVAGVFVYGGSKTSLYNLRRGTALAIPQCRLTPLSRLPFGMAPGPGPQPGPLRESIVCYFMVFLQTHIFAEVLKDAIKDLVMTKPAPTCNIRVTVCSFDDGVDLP

`O=C(O)c1cccc(C#Cc2ccccc2)c1C1CC1` [Entry 123, 2-cyclopropyl-3-(2-phenylethynyl)benzoic acid] gave a half-maximal inhibitory concentration (IC50) of 1 to 10 µM.
The result for `O=C(O)c1cccc(C#Cc2ccccc2)c1-c1ccccc1` [Entry 124, 2-phenyl-3-(2-phenylethynyl)benzoic acid] reads 10 to 100 µM.
In turn, `Cc1ccc(-c2c(C#Cc3ccccc3)cccc2C(=O)O)cc1` [Entry 125, 2-(4-methylphenyl)-3-(2-phenylethynyl)benzoic acid] came in with an IC50 of 1 to 10 µM.
The result for `COc1ccc(-c2c(C#Cc3ccccc3)cccc2C(=O)O)cn1` [Entry 126, 2-(6-methoxypyridin-3-yl)-3-(2-phenylethynyl)benzoic acid] reads 10 to 100 µM.
`CN(C)c1ccc(-c2c(C#Cc3ccccc3)cccc2C(=O)O)cn1` [Entry 127, 2-[6-(dimethylamino)pyridin-3-yl]-3-(2-phenylethynyl)benzoic acid] gave an IC50 of 10 to 100 µM.
The value for `O=C(O)c1cccc(C#Cc2ccccc2)c1-c1cccc(CO)c1` [Entry 128, 2-[3-(hydroxymethyl)phenyl]-3-(2-phenylethynyl)benzoic acid] was 10 to 100 µM; that for `O=C(O)c1cccc(C#Cc2ccccc2)c1-c1ccc2cc[nH]c2c1` [Entry 129, 2-(1H-indol-6-yl)-3-(2-phenylethynyl)benzoic acid] was under 1 µM; that for `O=C(O)c1cccc(C#Cc2ccccc2)c1-c1ccc(CO)cc1` [Entry 130, 2-[4-(hydroxymethyl)phenyl]-3-(2-phenylethynyl)benzoic acid] was 10 to 100 µM.
The compound `O=C(O)c1cccc(C#Cc2ccccc2)c1-c1ccc2occc2c1` [Entry 131, 2-(1-benzofuran-5-yl)-3-(2-phenylethynyl)benzoic acid] registered an IC50 of 10 to 100 µM.
The value for `O=C(O)c1cccc(C#Cc2ccccc2)c1-c1ccc2sccc2c1` [Entry 132, 2-(1-benzothiophen-5-yl)-3-(2-phenylethynyl)benzoic acid] was 10 to 100 µM.
Turning to `Cn1ccc2cc(-c3c(C#Cc4ccccc4)cccc3C(=O)O)ccc21` [Entry 133, 2-(1-methyl-1H-indol-5-yl)-3-(2-phenylethynyl)benzoic acid], the IC50 was 1 to 10 µM.
`CS(=O)(=O)Nc1cccc(-c2c(C#Cc3ccccc3)cccc2C(=O)O)c1` [Entry 134, 2-(3-methanesulfonamidophenyl)-3-(2-phenylethynyl)benzoic acid] gave an IC50 of 1 to 10 µM.
With `O=C(O)c1cccc(C#Cc2ccccc2)c1-c1ccc2ccccc2c1` [Entry 135, 2-(naphthalen-2-yl)-3-(2-phenylethynyl)benzoic acid], the half-maximal inhibitory concentration (IC50) was in the range of 1 to 10 µM.
The value for `Cn1ccc2ccc(-c3c(C#Cc4ccccc4)cccc3C(=O)O)cc21` [Entry 136, 2-(1-methyl-1H-indol-6-yl)-3-(2-phenylethynyl)benzoic acid] was 1 to 10 µM.
The value for `O=C(O)c1cccc(C#Cc2ccccc2)c1-c1ccccc1S(=O)(=O)NCCO` [Entry 137, 2-{2-[(2-hydroxyethyl)sulfamoyl]phenyl}-3-(2-phenylethynyl)benzoic acid] was 10 to 100 µM; that for `O=C(NC1CC1)c1ccc(-c2c(C#Cc3ccccc3)cccc2C(=O)O)cc1` [Entry 138, 2-[4-(cyclopropylcarbamoyl)phenyl]-3-(2-phenylethynyl)benzoic acid] was 10 to 100 µM.
The value for `Cn1ncc2ccc(-c3c(C#Cc4ccccc4)cccc3C(=O)O)cc21` [Entry 139, 2-(1-methyl-1H-indazol-6-yl)-3-(2-phenylethynyl)benzoic acid] was 10 to 100 µM; that for `O=C(O)c1cccc(C#Cc2cccc(O)c2)c1-c1cnc2ccccc2c1` [Entry 140, 3-((3-hydroxyphenyl)ethynyl)-2-(quinolin-3-yl)benzoic acid] was 1 to 10 µM.
For the compound `O=C(O)c1cccc(C#CCCCO)c1-c1cnc2ccccc2c1` [Entry 141, 3-(5-hydroxypent-1-ynyl)-2-(quinolin-3-yl)benzoic acid], the IC50 was 10 to 100 µM.
The value for `COc1ccc(C#Cc2cccc(C(=O)O)c2-c2cnc3ccccc3c2)cc1` [Entry 142, 3-((4-methoxyphenyl)ethynyl)-2-(quinolin-3-yl)benzoic acid] was 10 to 100 µM.
In turn, `O=C(O)c1cccc(C#Cc2cnc3cnccn23)c1-c1cnc2ccccc2c1` [Entry 143, 3-(imidazo[1,2-a]pyrazin-3-ylethynyl)-2-(quinolin-3-yl)benzoic acid] displayed a concentration for half-maximal inhibition (IC50) of 1 to 10 µM.
The value for `COC/C=C/c1cccc(C(=O)O)c1-n1cccc1` [Entry 144, 3-[(1E)-3-methoxyprop-1-en-1-yl]-2-(1H-pyrrol-1-yl)benzoic acid] was 1 to 10 µM.
The value for `O=C(O)c1cccc(/C=C/c2ccccc2)c1-n1cccc1` [Entry 145, 3-[(E)-2-phenylethenyl]-2-(1H-pyrrol-1-yl)benzoic acid] was 10 to 100 µM; that for `O=C(O)c1cccc(/C=C/c2ccc(F)cc2)c1-n1cccc1` [Entry 146, 3-[(E)-2-(4-fluorophenyl)ethenyl]-2-(1H-pyrrol-1-yl)benzoic acid] was 10 to 100 µM.
The compound `O=C(O)c1cccc(CCc2ccccc2)c1-n1cccc1` [Entry 147, 3-(2-phenylethyl)-2-(1H-pyrrol-1-yl)benzoic acid] displayed an IC50 of 10 to 100 µM.
Take `O=C(O)c1cccc(CCc2ccccc2)c1N1CCCC1` [Entry 148, 3-(2-phenylethyl)-2-(pyrrolidin-1-yl)benzoic acid]: the concentration for half-maximal inhibition (IC50) was 10 to 100 µM.
The result for `O=C(O)c1cccc(CCc2ccc(F)cc2)c1-n1cccc1` [Entry 149, 3-[2-(4-fluorophenyl)ethyl]-2-(1H-pyrrol-1-yl)benzoic acid] reads 10 to 100 µM; that for `O=C(O)c1cccc(C#Cc2ccccc2)c1-c1ccc2nc[nH]c2c1` [Entry 150, 2-(1H-1,3-benzodiazol-6-yl)-3-(2-phenylethynyl)benzoic acid], 10 to 100 µM; that for `NS(=O)(=O)c1cccc(C#Cc2ccccc2)c1-n1cccc1` [Entry 152, 3-Phenylethynyl-2-pyrrol-1-yl-benzenesulfonamide], 1 to 10 µM.
The compound `CC(=O)NS(=O)(=O)c1cccc(C#Cc2ccccc2)c1-n1cccc1` [Entry 153, N-Acetyl-3-phenylethynyl-2-pyrrol-1-yl-benzenesulfonamide] gave an IC50 of 10 to 100 µM.
Regarding `Cc1noc(C)c1-c1c(C#Cc2ccccc2)cccc1C(=O)O` [Entry 154, 2-(dimethyl-1,2-oxazol-4-yl)-3-(2-phenylethynyl)benzoic acid], the IC50 fell in the range of 1 to 10 µM.
Regarding `O=C(O)c1cccc(C#Cc2ccccc2)c1OCc1ccccc1` [Entry 155, 2-(benzyloxy)-3-(2-phenylethynyl)benzoic acid], the 50% inhibitory concentration (IC50) was 10 to 100 µM.
The result for `COC(=O)c1c[nH]c2cc(-c3c(C#Cc4ccccc4)cccc3C(=O)O)ccc12` [Entry 156, 2-[3-(methoxycarbonyl)-1H-indol-6-yl]-3-(2-phenylethynyl)benzoic acid] reads 1 to 10 µM; that for `O=C(O)c1cccc(C#CCNCc2ccccc2)c1-c1ccccc1` [Entry 157, 3-[3-(benzylamino)prop-1-yn-1-yl]-2-phenylbenzoic acid], 10 to 100 µM.
The value for `O=C(O)c1cccc(C#CCNCCCn2ccnc2)c1-c1ccccc1` [Entry 158, 3-(3-{[3-(1H-imidazol-1-yl)propyl]amino}prop-1-yn-1-yl)-2-phenylbenzoic acid] was 10 to 100 µM; that for `O=C(O)c1cccc(C#CCN2CCN(c3ccccc3)CC2)c1-c1ccccc1` [Entry 159, 2-phenyl-3-[3-(4-phenylpiperazin-1-yl)prop-1-yn-1-yl]benzoic acid] was 10 to 100 µM; that for `O=C(O)c1cccc(C#CCN2CCCC2)c1-c1ccccc1` [Entry 160, 2-phenyl-3-[3-(pyrrolidin-1-yl)prop-1-yn-1-yl]benzoic acid] was 10 to 100 µM.
`O=C(O)c1cccc(C#CCO)c1-c1ccccc1` [Entry 161, 3-(3-hydroxyprop-1-yn-1-yl)-2-phenylbenzoic acid] showed a half-inhibitory concentration (IC50) of 100 to 1000 µM.
The result for `NCc1cccc(C#Cc2cccc(C(=O)O)c2-n2cccc2)c1` [Entry 162, 3-{2-[3-(Aminomethyl)phenyl]ethynyl}-2-(1H-pyrrol-1-yl)benzoic acid] reads 1 to 10 µM; that for `O=C(O)c1cccc(C#Cc2cccc(CNS(=O)(=O)c3cc(F)cc(F)c3)c2)c1-n1cccc1` [Entry 163, 3-{2-[3-(3,5-difluorobenzenesulfonamidomethyl)phenyl]ethynyl}-2-(1H-pyrrol-1-yl)benzoic acid], 1 to 10 µM.
`Cc1ncc(S(=O)(=O)NCc2ccc(C#Cc3cccc(C(=O)O)c3-n3cccc3)cc2)n1C` [Entry 164]: the IC50 is 1 to 10 µM.
`O=C(O)c1cccc(C#Cc2cccc(CNS(=O)(=O)C3CC3)c2)c1-n1cccc1` [Entry 165, 3-{2-[3-(cyclopropanesulfonamidomethyl)phenyl]ethynyl}-2-(1H-pyrrol-1-yl)benzoic acid]: the IC50 was under 1 µM.
The value for `COc1cccc(-c2c(C#Cc3c[nH]c4ncccc34)cccc2C(=O)O)c1` [Entry 166, 2-(3-methoxyphenyl)-3-(2-{1H-pyrrolo[2,3-b]pyridin-3-yl}ethynyl)benzoic acid] was 10 to 100 µM; that for `Cn1ncc2ccc(-c3c(C#Cc4c[nH]c5ncccc45)cccc3C(=O)O)cc21` [Entry 167, 2-(1-methyl-1H-indazol-6-yl)-3-(2-{1H-pyrrolo[2,3-b]pyridin-3-yl}ethynyl)benzoic acid] was 10 to 100 µM; that for `Cc1nc2cc(-c3c(C#Cc4c[nH]c5ncccc45)cccc3C(=O)O)ccc2s1` [Entry 168, 2-(2-methyl-1,3-benzothiazol-5-yl)-3-(2-{1H-pyrrolo[2,3-b]pyridin-3-yl}ethynyl)benzoic acid] was 10 to 100 µM.
The value for `Cn1ncc2ccc(-c3c(C#Cc4cscn4)cccc3C(=O)O)cc21` [Entry 170] was 1 to 10 µM; that for `Cn1ccc2cc(-c3c(C#Cc4cscn4)cccc3C(=O)O)ccc21` [Entry 171] was 1 to 10 µM.
